Experimental data reported in US6759385B1, “Methods to treat undesirable immune responses” (Regents of the University of Minnesota, priority 1997, dated 2004).

What was measured:
[1] = test system: anti-TAChR and anti-peptide IgG subclasses; experiment: ELISA of anti-TAChR and anti-peptide IgG subclasses (Example III); type: in vivo, mouse; conditions: IL-4 KO mice, nasal α epitope pool
Description: Assay of Anti-TAChR and Anti-peptide IgG Subclasses. The relative concentration of IgG subclasses of anti-TAChR and anti-peptide antibodies in the sera of peptide- and sham-treated mice was measured by ELISA after immunization with TAChR. Pooled sera from three-four mice that had received identical treatments was used. The sera used in this assay was obtained at the end of the observation period (10 weeks after beginning of the anti-TAChR immunization).
Ninety-six well plates (Nunc, Karstrup, Denmark) were washed extensively and incubated as follows: 4 hours with a 10 μg/ml solution of TAChR or of individual peptides Tα150-169, Tα181-200 and Tα360-378 in 0.1 M Na phosphate buffer, pH 9.5 (two wells for each antigen), 1 hr with PBS plus 3% bovine serum albumin (BSA), 2 hours with mouse serum (serial dilutions from 1:100 to 1:40,000 in PBS plus 3% BSA), 1 hr with a dilution 1:1000 in PBS plus 3% BSA of goat antibody specific for the total IgG, or IgGl, or IgG2a, or IgG2b or IgG3 (Mouse Monoclonal Isotyping Kit, Sigma, St. Louis, Mo.), and 30 minutes with a 1:3000 dilution of peroxidase-conjugate rabbit anti-goat IgG (Sigma) in PBS plus 3% BSA. The plates were washed, and developed them for 20-60 minutes with ABTS peroxidase substrate system (Kirkegaard & Perry Laboratories Inc., Gaithersburg, Md.). […] The OD was read at 405 nanometers. […]

[2] = test system: EMG in B6 mice immunized with TAChR; experiment: Nasal tolerization, EMG symptoms by pancuronium-sensitized inverted hang test (Example I); type: in vivo, mouse
Description: Mice and Induction of Tolerance. B6 mice were purchased from Jackson Laboratory (Bar Harbor, Me.) and housed at the animal facility of the University of Minnesota. After light anesthesia by i.m. injection of Ketaset (100 mg/kg; Alveco Co., Inc., Fort Dodge, Iowa), the mice received into both nostrils a total of 25 μl of PBS containing 50 μg of peptide Tα150-169, either alone or pooled with equimolar amounts of peptides Tα180-200 and Tα360-378 (referred to as “peptide pool” or “αpool” ). The dose was based on the results of an experiment in which increasing amounts of peptide α150-169 were used (50 μg, 100 μg, 200 μg, 400 μg and 800 μg). […] The tolerogen was administered as a solution instilled into the nostrils, a method of delivery which allowed accurate administration of a defined amount of solution.
In protocol A, peptides or peptide-free PBS were administered two weeks before the first TAChR immunization, and then three more times, on the same day as the three immunizations with TAChR (at one month intervals, see below). In protocol B, peptides or peptide-free PBS were administered weekly, starting two weeks before beginning of the immunization with TAChR, for a total of 14 treatments (two before and 12 during TAChR immunization).
Immunization. Eight-ten week old mice were immunized by subcutaneous injections, along the back and at the base of the tail, with solubilized TAChR (50 μg), peptide Tα150-169 (100 μg), or the peptide pool (100 μg of each peptide). The mice were boosted twice at 4 week intervals with the same amouni of antigen. The antigen solutions (in 100 μl PBS) were emulsified with an equal volume of complete Freund's adjuvant (FA) for the first injection, and with incomplete FA for the boosts. Control mice were injected with PBS emulsified in the appropriate adjuvant.
Evaluation of the Clinical Symptoms of EMG. EMG symptoms were quantified by a forced exercise using the inverted hang technique, sensitized by administration of a minute amount of pancuronium bromide (0-03 mg/kg i.p.) just prior to the beginning of the test (Karachunski et al., 1995). The mice hang from a grid, and the time it takes for the mouse to release its hold and fall three times (“holding time”) was measured. The test was performed on the day of the first nasal administration, on the day before each immunization, and 7-14 days after the third immunization, just before sacrificing the animal. This test is parametric, and gives a quantitative assessment of the severity of the weakness.
The holding time of normal mice was 10.4±2.1 minutes (n=99). […]

peptide Tα150-169: synthetic peptide corresponding to residues 150-169 of the TAChR α subunit (TYDGTKVSISPESDRPDLST; UniProt P02710 174-193, looked up, fragment)
anti-peptide IgG2a [1]: moderate synthesis of IgG2a | mice that developed EMG ([2]; nasal protocol A (monthly), TAChR-immunized B6 mice): 42% | mice with detectable weakness ([2]; nasal protocol B (weekly), TAChR-immunized B6 mice): none | protection from EMG, dose finding ([2]; nasal, lowest dose 50 μg of 50-800 μg): satisfactory level of protection | holding time compared with sham-tolerized mice ([2]; nasal, protocols A and B): significantly longer holding times
